Test results taken from patent US8822430B2 (Gilead Sciences, Inc., priority 2009, dated 2014).

system: HCV 1b RLuc cells (dicistronic genotype 1b Con1 replicon); test: Renilla luciferase (RLuc)-based HCV replicon reporter assay; format: cell-based, HCV genotype 1b; conditions: Hepatitis C virus, 72 h, HCV 1b RLuc replicon, 72 hours; read-out: Activity (antiviral potency [EC50])
Method in brief: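 EC50 values were calculated by non-linear regression of Renilla luciferase signal from lysed cells after 72 h of compound exposure. Cells harboured a genotype 1b Con1 dicistronic replicon encoding RLuc. Compounds were serially diluted in DMSO from 10 mM stocks into culture media.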

Row | SMILES | EC50 [nM]
1 | COC(=O)N[C@H](C(=O)N1CCC[C@H]1c1nc2ccc(-c3ccc(-c4ccc5nc([C@@H]6CCCN6C(=O)[C@@H](NC(=O)OC)C(C)C)[nH]c5c4)s3)cc2[nH]1)C(C)C | 0.0103
2 | COC(=O)N[C@H](C(=O)N1CCC[C@H]1c1ncc(-c2ccc(-c3ccc4cc(-c5ccc6nc([C@@H]7[C@H]8CC[C@H](C8)N7C(=O)[C@@H](NC(=O)OC)C(C)C)[nH]c6c5)ccc4c3)cc2)[nH]1)C(C)C | 0.0898
3 | CNC(=O)N1CCN(C(=O)[C@@H](NC(=O)OC)C(C)C)[C@H](c2ncc(-c3ccc(C#Cc4ccc(-c5cnc([C@@H]6CCCN6C(=O)[C@@H](NC(=O)OC)C(C)C)[nH]5)cc4)cc3)[nH]2)C1 | 1.05
4 | COC(=O)N[C@H](C(=O)N1CCC[C@H]1c1ncc(C#Cc2ccc(-c3cnc([C@@H]4CCCN4C(=O)[C@@H](NC(=O)OC)C(C)C)[nH]3)cc2)[nH]1)C(C)C | 0.139
5 | COC(=O)N[C@H](C(=O)N1CCC[C@H]1c1ncc(-c2ccc(/C=C/c3ccc(-c4cnc([C@@H]5CCCN5C(=O)[C@@H](NC(=O)OC)C(C)C)[nH]4)cc3)cc2)[nH]1)C(C)C | 0.0264
6 | COC(=O)N[C@H](C(=O)N1CC2(CC2)C[C@H]1c1ncc(-c2ccc3cc(-c4ccc(-c5cnc([C@@H]6[C@H]7CC[C@H](C7)N6C(=O)[C@@H](NC(=O)OC)C(C)(C)OC)[nH]5)cc4)ccc3c2)[nH]1)C(C)C | 0.0145
7 | COC(=O)N[C@H](C(=O)N1Cc2ccccc2C1c1ncc(-c2ccc(-c3ccc(-c4cnc([C@@H]5CCCN5C(=O)[C@@H](NC(=O)OC)C(C)C)[nH]4)cc3)cc2)[nH]1)C(C)C (stereo partly shown) | 0.0414
8 | COC(=O)N[C@H](C(=O)N1CCC[C@H]1c1ncc(-c2ccc3c(c2)C(=O)c2cc(-c4cnc([C@@H]5CCCN5C(=O)[C@@H](NC(=O)OC)C(C)C)[nH]4)ccc2-3)[nH]1)C(C)C | 0.0184
9 | COC(=O)N[C@H](C(=O)N1CCC[C@H]1c1ncc(-c2ccc3cc(-c4ccc(-c5cnc([C@@H]6CCCN6C(=O)[C@H](NC(=O)OC)c6ccccc6OC)[nH]5)cc4)ccc3c2)[nH]1)C(C)C | 0.0073
10 | COC(=O)N[C@H](C(=O)N1CCC[C@H]1c1ncc(-c2ccc(N3CCN(c4ccc(-c5cnc([C@@H]6CCCN6C(=O)[C@@H](NC(=O)OC)C(C)C)[nH]5)cc4)CC3)cc2)[nH]1)C(C)C | 0.199
11 | COC(=O)N[C@H](C(=O)N1CCC[C@H]1c1ncc(-c2ccc3c(c2)COCc2cc(-c4cnc([C@@H]5[C@H]6CC[C@H](C6)N5C(=O)[C@@H](NC(=O)OC)C(C)C)[nH]4)ccc2-3)[nH]1)C(C)C | 0.0221
12 | COC(=O)N[C@H](C(=O)N1CCC[C@H]1c1ncc(-c2ccc(C#Cc3ccc4nc([C@@H]5CCCN5C(=O)[C@@H](NC(=O)OC)C(C)C)[nH]c4c3)cc2)[nH]1)C(C)C | 0.0111
13 | COC(=O)N[C@@H](CCOC(F)F)C(=O)N1CCC[C@H]1c1ncc(-c2ccc(-c3ccc4cc(-c5cnc([C@@H]6CC7(CC7)CN6C(=O)[C@@H](NC(=O)OC)C(C)C)[nH]5)ccc4c3)cc2)[nH]1 | 0.0052
14 | CC[C@H](NC(=O)OC)C(=O)N1[C@@H]2CC[C@@H](C2)[C@H]1c1ncc(-c2ccc(-c3ccc4cc(-c5cnc([C@@H]6CC7(CC7)CN6C(=O)[C@@H](NC(=O)OC)C(C)C)[nH]5)ccc4c3)cc2)[nH]1 | 0.0086
15 | COC(=O)N[C@H](C(=O)N1CCC[C@H]1c1ncc(-c2ccc(C#Cc3ccc(-c4cnc([C@@H]5CNCCN5C(=O)[C@@H](NC(=O)OC)C(C)C)[nH]4)cc3)cc2)[nH]1)C(C)C | 0.201
16 | COC(=O)N[C@H](C(=O)N1CCC[C@H]1c1ncc(-c2ccc(-c3ccc(-c4ccc5nc([C@@H]6CCCN6C(=O)[C@@H](NC(=O)OC)C(C)C)[nH]c5c4)s3)cc2)[nH]1)C(C)C | 0.003
17 | COC(=O)N[C@H](C(=O)N1CCC[C@H]1c1ncc(-c2ccc(-c3ccc(-c4cnc([C@@H]5CC6(CCC6)ON5C(=O)[C@@H](NC(=O)OC)C(C)C)[nH]4)cc3)cc2)[nH]1)C(C)C | 0.0083
18 | COC(=O)N[C@H](C(=O)N1CCC[C@H]1c1ncc(-c2ccc(-c3ccc(-c4cnc([C@@H]5CCCN5C(=O)[C@@H](NC(=O)OC)C(C)C)[nH]4)cc3C#N)cc2)[nH]1)C(C)C | 0.0158
19 | COC(=O)N[C@H](C(=O)N1CCC[C@H]1c1ncc(-c2ccc3c(c2)Sc2ccc(-c4cnc([C@@H]5CCCN5C(=O)[C@@H](NC(=O)OC)C(C)C)[nH]4)cc2S3)[nH]1)C(C)C | 0.0058
20 | COC(=O)N[C@@H](C)C(=O)N1[C@@H]2CC[C@@H](C2)[C@H]1c1ncc(-c2ccc3cc(-c4ccc5cc(-c6cnc([C@@H]7CCCN7C(=O)[C@@H](NC(=O)OC)C(C)C)[nH]6)ccc5c4)ccc3c2)[nH]1 | 1.17
21 | COC(=O)N[C@H](C(=O)N1CCC[C@H]1c1nc2ccc(-c3ccc4nc([C@@H]5CCCN5C(=O)[C@@H](NC(=O)OC)C(C)C)[nH]c4c3)cc2[nH]1)C(C)C | 35.5

Row | SMILES | EC50 [nM]
22 | COC(=O)N[C@H](C(=O)N1CCC[C@H]1c1ncc(-c2ccc(-c3cc4ccc(-c5cnc([C@@H]6CCCN6C(=O)[C@@H](NC(=O)OC)C(C)C)[nH]5)cc4s3)cc2)[nH]1)C(C)C | 0.0093
23 | COC(=O)NC(C(=O)N1CCC[C@H]1c1ncc(-c2cc3c(OC)c4sc(-c5cnc([C@@H]6CCCN6C(=O)C(NC(=O)OC)c6ccccc6)[nH]5)cc4c(OC)c3s2)[nH]1)c1ccccc1 (stereo partly shown) | 0.0262
24 | COC(=O)N[C@@H](CS(C)(=O)=O)C(=O)N1[C@@H]2CC[C@@H](C2)[C@H]1c1nc2ccc(-c3ccc4c(c3)C(F)(F)c3cc(-c5cnc([C@@H]6CC7(CC7)CN6C(=O)[C@@H](NC(=O)OC)C(C)C)[nH]5)ccc3-4)cc2[nH]1 | 0.005
25 | COC(=O)N[C@H](C(=O)N1CCC[C@H]1c1ncc(-c2ccc(-c3cnc(-c4ccc(-c5cnc([C@@H]6CCCN6C(=O)[C@@H](NC(=O)OC)C(C)C)[nH]5)cc4)s3)cc2)[nH]1)C(C)C | 0.0385
26 | COC(=O)N[C@H](C(=O)N1CCC[C@H]1c1ncc(-c2cc3c(OC)c4sc(-c5cnc([C@@H]6CCCN6C(=O)[C@@H](NC(=O)OC)C(C)C)[nH]5)cc4c(OC)c3s2)[nH]1)C(C)C | 0.0161
27 | COC(=O)N[C@H](C(=O)N1CCC[C@H]1c1ncc(-c2ccc(C#Cc3ccc(-c4cnc([C@@H]5CCCN5C(=O)[C@@H](NC(=O)OC)C(C)C)[nH]4)cc3)cc2)[nH]1)C(C)C | 0.0126
28 | COC(=O)N[C@H](C(=O)N1CCC[C@H]1c1ncc(-c2ccc(-c3ccc4c(c3)C(F)(F)c3cc(-c5cnc([C@@H]6CC7(CC7)CN6C(=O)[C@@H](NC(=O)OC)C(C)C)[nH]5)ccc3-4)cc2)[nH]1)C(C)C | 0.0208
29 | COC(=O)N[C@H](C(=O)N1CCC[C@H]1c1ncc(-c2ccc3cc(-c4ccc(-c5cnc([C@@H]6C[C@@H](Cc7ccccc7)CN6C(=O)[C@@H](NC(=O)OC)C(C)C)[nH]5)cc4)ccc3c2)[nH]1)C(C)C | 0.014
30 | COC(=O)N[C@H](C(=O)N1CCC[C@H]1c1ncc(-c2ccc(-c3ccc(-c4cnc([C@@H]5CN(CC(F)(F)F)CN5C(=O)[C@@H](NC(=O)OC)C(C)C)[nH]4)cc3)cc2)[nH]1)C(C)C | 0.0074
31 | COC(=O)N[C@H](C(=O)N1CCC[C@H]1c1ncc(-c2ccc(-c3ccc4cc(-c5cnc([C@@H]6[C@H]7CC[C@H](C7)N6C(=O)[C@@H](NC(=O)OC)C(C)C)[nH]5)ccc4c3)cc2)[nH]1)C(C)C | 0.011
32 | COC(=O)N[C@H](C(=O)N1CCC[C@H]1c1ncc(-c2ccc3cc(-c4ccc(-c5cnc([C@@H]6C[C@H](CNC(C)=O)CN6C(=O)[C@@H](NC(=O)OC)C(C)C)[nH]5)cc4)ccc3c2)[nH]1)C(C)C | 0.138
33 | COC(=O)N[C@H](C(=O)N1CC2(CC2)C[C@H]1c1nc(-c2ccc3cc(-c4ccc(-c5cnc([C@@H]6SCCN6C(=O)[C@@H](NC(=O)OC)C6CCOCC6)[nH]5)cc4)ccc3c2)c[nH]1)C(C)C | 0.132
34 | COC(=O)N[C@H](C(=O)N1CCC[C@H]1C(=O)Nc1cccc(-c2ccc(-c3cnc([C@@H]4CCCN4C(=O)[C@@H](NC(=O)OC)C(C)C)[nH]3)cc2)c1)C(C)C | 0.118
35 | COC(=O)N[C@H](C(=O)N1CCC[C@H]1c1ncc(-c2ccc3cc(-c4ccc(-c5cnc([C@@H]6CCCN6C(=O)[C@H](NC(=O)OC)C6CCCCC6)[nH]5)cc4)ccc3c2)[nH]1)C(C)C | 0.0972
36 | COC(=O)N[C@@H](CCS(C)(=O)=O)C(=O)N1[C@@H]2CC[C@@H](C2)[C@H]1c1nc2ccc(-c3ccc4c(c3)C(F)(F)c3cc(-c5cnc([C@@H]6CC7(CC7)CN6C(=O)[C@@H](NC(=O)OC)C(C)C)[nH]5)ccc3-4)cc2[nH]1 | 0.0218
37 | COC(=O)N[C@H](C(=O)N1CCC[C@H]1c1ncc(-c2ccc3c(c2)C(=O)c2cc(-c4ccc5nc([C@@H]6[C@H]7CC[C@H](C7)N6C(=O)[C@@H](NC(=O)OC)C(C)C)[nH]c5c4)ccc2-3)[nH]1)C(C)C | 0.006
38 | COC(=O)NC(C(=O)N1CCC[C@H]1c1ncc(-c2ccc(C#Cc3ccc(-c4cnc([C@@H]5CCCN5C(=O)[C@@H](NC(=O)OC)C(C)C)[nH]4)cc3)cc2)[nH]1)C(F)(F)F (stereo partly shown) | > 44.4
39 | COC(=O)NC(C(=O)N1CCS[C@H]1c1nc(-c2cc3c(OC)c4sc(-c5c[nH]c([C@@H]6SCCN6C(=O)C(NC(=O)OC)c6ccccc6)n5)cc4c(OC)c3s2)c[nH]1)c1ccccc1 (stereo partly shown) | 4.37
40 | COC(=O)N[C@H](C(=O)N1CCC[C@H]1c1ncc(-c2ccc(C#Cc3ccc(-c4cnc([C@@H]5CN(C(=O)OC(C)(C)C)CCN5C(=O)[C@@H](NC(=O)OC)C(C)C)[nH]4)cc3)cc2)[nH]1)C(C)C | 4.73
41 | COC(=O)N[C@H](C(=O)N1CCC[C@H]1c1ncc(-c2ccc(-c3ccc(-c4cnc([C@@H]5CCCN5C(=O)[C@@H](NC(=O)OC)C(C)C)[nH]4)s3)cc2)[nH]1)C(C)C | 0.0081

same assay, conditions: Hepatitis C virus, 72 h, read-out: Activity (antiviral potency [EC50])

Row | SMILES | EC50 [nM]
42 | COC(=O)N[C@H](C(=O)N1CCC[C@H]1C(=O)Nc1ccc(NC(=O)c2ccc(NC(=O)[C@@H]3CCCN3C(=O)[C@@H](NC(=O)OC)C(C)C)cc2)cc1)C(C)C | 37.8

same assay, conditions: Hepatitis C virus, GETYPE1B, 72 h, HCV 1b RLuc replicon, 72 hours; read-out: Activity (antiviral potency [EC50])

Row | SMILES | EC50 [nM]
43 | COC(=O)N[C@H](C(=O)N1CCC[C@H]1c1ncc(-c2ccc3cc(-c4cnc([C@@H]5CCCN5C(=O)[C@@H](NC(=O)OC)C(C)C)[nH]4)ccc3c2)[nH]1)C(C)C | 0.0511
